Data: ChEMBL document CHEMBL4649983, “Selective targeting of the BRG/PB1 bromodomains impairs embryonic and trophoblast stem cell maintenance” (Sci Adv, 2015)
“And” between values parts separate entries of the source, which are not always exact repeats. Equal values may be shown once.

Legend:
[1] = biological target: Protein polybromo-1 (Homo sapiens) (UniProt Q86U86); conditions: Protein concentration 2.0 uM
[2] = biological target: Transcription intermediary factor 1-alpha (Homo sapiens) (UniProt O15164); conditions: Compound concentration 10.0 uM, Protein concentration 2.0 uM
[3] = biological target: ATPase family AAA domain-containing protein 2 (Homo sapiens) (UniProt Q6PL18); conditions: Compound concentration 10.0 uM, Protein concentration 2.0 uM
[4] = biological target: Histone acetyltransferase KAT2A (Homo sapiens) (UniProt Q92830); conditions: Compound concentration 10.0 uM, Protein concentration 2.0 uM
[5] = biological target: Protein polybromo-1 (Homo sapiens) (UniProt Q86U86); conditions: Protein concentration 2.0 uM; remark: listed apart in the source
[6] = biological target: Bromodomain-containing protein 4 (Homo sapiens) (UniProt O60885); conditions: Compound concentration 10.0 uM, Protein concentration 2.0 uM
[7] = biological target: Protein polybromo-1 (Homo sapiens) (UniProt Q86U86); conditions: Compound concentration 10.0 uM, Protein concentration 2.0 uM
[8] = biological target: SWI/SNF-related matrix-associated actin-dependent regulator of chromatin subfamily A member 2 (Homo sapiens) (UniProt P51531); conditions: Compound concentration 10.0 uM, Protein concentration 2.0 uM
Sequence of SWI/SNF-related matrix-associated actin-dependent regulator of chromatin subfamily A member 2 (Homo sapiens) (P51531 whole entry): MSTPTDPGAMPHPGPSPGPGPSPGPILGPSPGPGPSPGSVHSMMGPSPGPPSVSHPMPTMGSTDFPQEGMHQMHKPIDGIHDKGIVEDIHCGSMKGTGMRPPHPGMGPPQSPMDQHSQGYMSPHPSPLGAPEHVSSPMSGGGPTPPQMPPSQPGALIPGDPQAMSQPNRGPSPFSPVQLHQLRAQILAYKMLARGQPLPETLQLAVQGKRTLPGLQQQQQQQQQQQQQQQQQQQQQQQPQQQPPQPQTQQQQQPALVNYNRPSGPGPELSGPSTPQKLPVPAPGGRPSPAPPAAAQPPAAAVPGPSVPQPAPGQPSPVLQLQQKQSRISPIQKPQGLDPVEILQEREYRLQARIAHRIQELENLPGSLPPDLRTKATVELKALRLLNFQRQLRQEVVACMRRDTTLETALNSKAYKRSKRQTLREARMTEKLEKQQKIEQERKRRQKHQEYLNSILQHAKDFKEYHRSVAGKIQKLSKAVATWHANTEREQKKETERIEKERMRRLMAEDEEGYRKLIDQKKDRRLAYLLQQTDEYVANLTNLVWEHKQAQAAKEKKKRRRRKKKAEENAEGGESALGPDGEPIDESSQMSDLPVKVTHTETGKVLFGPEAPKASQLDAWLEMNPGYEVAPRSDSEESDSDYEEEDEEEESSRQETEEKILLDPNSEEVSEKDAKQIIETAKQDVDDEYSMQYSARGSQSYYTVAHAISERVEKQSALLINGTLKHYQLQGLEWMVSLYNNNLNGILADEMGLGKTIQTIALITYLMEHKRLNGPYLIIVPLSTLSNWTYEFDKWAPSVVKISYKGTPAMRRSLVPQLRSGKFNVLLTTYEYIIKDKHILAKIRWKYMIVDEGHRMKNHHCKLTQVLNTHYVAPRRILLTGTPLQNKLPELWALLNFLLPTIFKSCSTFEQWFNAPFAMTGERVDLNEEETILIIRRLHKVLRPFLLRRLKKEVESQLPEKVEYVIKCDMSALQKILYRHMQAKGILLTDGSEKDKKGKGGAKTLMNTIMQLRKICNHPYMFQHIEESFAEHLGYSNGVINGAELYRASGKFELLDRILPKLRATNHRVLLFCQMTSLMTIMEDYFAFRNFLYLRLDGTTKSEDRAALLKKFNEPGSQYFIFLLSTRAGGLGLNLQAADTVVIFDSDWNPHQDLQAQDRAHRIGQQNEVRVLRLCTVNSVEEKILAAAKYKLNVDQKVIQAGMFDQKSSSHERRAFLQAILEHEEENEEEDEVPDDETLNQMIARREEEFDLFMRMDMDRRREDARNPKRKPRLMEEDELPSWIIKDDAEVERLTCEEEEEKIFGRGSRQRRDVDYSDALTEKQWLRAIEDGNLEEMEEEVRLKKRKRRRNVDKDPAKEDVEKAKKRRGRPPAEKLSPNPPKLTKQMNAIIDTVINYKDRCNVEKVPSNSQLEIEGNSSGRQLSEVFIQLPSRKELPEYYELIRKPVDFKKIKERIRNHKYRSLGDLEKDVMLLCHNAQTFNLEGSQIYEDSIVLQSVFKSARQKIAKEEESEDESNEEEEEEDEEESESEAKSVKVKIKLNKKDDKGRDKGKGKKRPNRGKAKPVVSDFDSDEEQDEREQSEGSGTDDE

[9] = biological target: Bromodomain testis-specific protein (Homo sapiens) (UniProt Q58F21); conditions: Compound concentration 10.0 uM, Protein concentration 2.0 uM
[10] = biological target: SWI/SNF-related matrix-associated actin-dependent regulator of chromatin subfamily A member 2 (Homo sapiens) (UniProt P51531); assay: Thermal Shift Assay. Domain start/stop: A1373-E1493; conditions: Compound concentration 10.0 uM, Protein concentration 2.0 uM
[11] = biological target: PH-interacting protein (Homo sapiens) (UniProt Q8WWQ0); conditions: Compound concentration 10.0 uM, Protein concentration 2.0 uM
[12] = biological target: Bromodomain and PHD finger-containing protein 3 (Homo sapiens) (UniProt Q9ULD4); conditions: Compound concentration 10.0 uM, Protein concentration 2.0 uM
[13] = biological target: ATPase family AAA domain-containing protein 2B (Homo sapiens) (UniProt Q9ULI0); conditions: Compound concentration 10.0 uM, Protein concentration 2.0 uM
[14] = biological target: Bromodomain and WD repeat-containing protein 1 (Homo sapiens) (UniProt Q9NSI6); conditions: Compound concentration 10.0 uM, Protein concentration 2.0 uM
[15] = biological target: Bromodomain-containing protein 1 (Homo sapiens) (UniProt O95696); conditions: Compound concentration 10.0 uM, Protein concentration 2.0 uM
[16] = biological target: Tripartite motif-containing protein 66 (Homo sapiens) (UniProt O15016); assay: Thermal Shift Assay. Domain start/stop: M1091-S1218; conditions: Compound concentration 10.0 uM, Protein concentration 2.0 uM
[17] = biological target: Transcription initiation factor TFIID subunit 1 (Homo sapiens) (UniProt P21675); conditions: Compound concentration 10.0 uM, Protein concentration 2.0 uM
[18] = biological target: Bromodomain testis-specific protein (Homo sapiens) (UniProt Q58F21); conditions: Compound concentration 10.0 uM, Protein concentration 2.0 uM; remark: listed apart in the source
[19] = biological target: Nuclear body protein SP140-like protein (Homo sapiens) (UniProt Q9H930); conditions: Compound concentration 10.0 uM, Protein concentration 2.0 uM
[20] = biological target: Histone acetyltransferase p300 (Homo sapiens) (UniProt Q09472); conditions: Compound concentration 10.0 uM, Protein concentration 2.0 uM
Peregrin (Homo sapiens) [21] = biological target: Peregrin (Homo sapiens) (UniProt P55201); conditions: Compound concentration 10.0 uM, Protein concentration 2.0 uM
[22] = biological target: Chromatin remodeling regulator CECR2 (Homo sapiens) (UniProt Q9BXF3); conditions: Compound concentration 10.0 uM, Protein concentration 2.0 uM
[23] = biological target: Bromodomain-containing protein 9 (Homo sapiens) (UniProt Q9H8M2); conditions: Compound concentration 10.0 uM, Protein concentration 2.0 uM
[24] = biological target: Transcription initiation factor TFIID subunit 1-like (Homo sapiens) (UniProt Q8IZX4); conditions: Compound concentration 10.0 uM, Protein concentration 2.0 uM
[25] = biological target: CREB-binding protein (Homo sapiens) (UniProt Q92793); conditions: Compound concentration 10.0 uM, Protein concentration 2.0 uM
[26] = biological target: Nuclear body protein SP140 (Homo sapiens) (UniProt Q13342); conditions: Compound concentration 10.0 uM, Protein concentration 2.0 uM
[27] = biological target: Bromodomain adjacent to zinc finger domain protein 2B (Homo sapiens) (UniProt Q9UIF8); conditions: Compound concentration 10.0 uM, Protein concentration 2.0 uM
[28] = biological target: Bromodomain and WD repeat-containing protein 3 (Homo sapiens) (UniProt Q6RI45); conditions: Compound concentration 10.0 uM, Protein concentration 2.0 uM
[29] = biological target: Nucleosome-remodeling factor subunit BPTF (Homo sapiens) (UniProt Q12830); conditions: Compound concentration 10.0 uM, Protein concentration 2.0 uM
[30] = biological target: Bromodomain-containing protein 4 (Homo sapiens) (UniProt O60885); conditions: Compound concentration 10.0 uM, Protein concentration 2.0 uM; remark: listed apart in the source
[31] = biological target: Bromodomain-containing protein 2 (Homo sapiens) (UniProt P25440); conditions: Compound concentration 10.0 uM, Protein concentration 2.0 uM
[32] = biological target: Protein polybromo-1 (Homo sapiens) (UniProt Q86U86); assay: Thermal Shift Assay. Domain start/stop: R487-D598; conditions: Compound concentration 10.0 uM, Protein concentration 2.0 uM
[33] = biological target: Bromodomain-containing protein 2 (Homo sapiens) (UniProt P25440); conditions: Compound concentration 10.0 uM, Protein concentration 2.0 uM; remark: listed apart in the source
[34] = biological target: Transcription intermediary factor 1-alpha (Homo sapiens) (UniProt O15164); conditions: Compound concentration 10.0 uM, Protein concentration 2.0 uM; remark: listed apart in the source
[35] = biological target: Transcription initiation factor TFIID subunit 1-like (Homo sapiens) (UniProt Q8IZX4); conditions: Compound concentration 10.0 uM, Protein concentration 2.0 uM; remark: listed apart in the source
[36] = biological target: Histone-lysine N-methyltransferase ASH1L (Homo sapiens) (UniProt Q9NR48); conditions: Compound concentration 10.0 uM, Protein concentration 2.0 uM
[37] = biological target: Histone acetyltransferase KAT2B (Homo sapiens) (UniProt Q92831); conditions: Compound concentration 10.0 uM, Protein concentration 2.0 uM
[38] = biological target: Protein polybromo-1 (Homo sapiens) (UniProt Q86U86); conditions: Compound concentration 10.0 uM, Protein concentration 2.0 uM; remark: listed apart in the source
[39] = biological target: Bromodomain-containing protein 3 (Homo sapiens) (UniProt Q15059); assay: Thermal Shift Assay. Domain start/stop: P24-E144; conditions: Compound concentration 10.0 uM, Protein concentration 2.0 uM
[40] = biological target: Histone acetyltransferase p300 (Homo sapiens) (UniProt Q09472); assay: Thermal Shift Assay. Domain start/stop: A1040-S1171; conditions: Compound concentration 10.0 uM, Protein concentration 2.0 uM
Peregrin (Homo sapiens) [41] = biological target: Peregrin (Homo sapiens) (UniProt P55201); conditions: Compound concentration 10.0 uM, Protein concentration 2.0 uM; remark: listed apart in the source
[42] = biological target: Bromodomain adjacent to zinc finger domain protein 2A (Homo sapiens) (UniProt Q9UIF9); conditions: Compound concentration 10.0 uM, Protein concentration 2.0 uM
[43] = biological target: Bromodomain adjacent to zinc finger domain protein 1A (Homo sapiens) (UniProt Q9NRL2); conditions: Compound concentration 10.0 uM, Protein concentration 2.0 uM
[44] = biological target: PH-interacting protein (Homo sapiens) (UniProt Q8WWQ0); conditions: Compound concentration 20.0 uM, Protein concentration 25.0 uM
Description: Alphascreen assay. Domain start/stop: D1302-R1434

[45] = biological target: Transcription intermediary factor 1-beta (Homo sapiens) (UniProt Q13263); conditions: Compound concentration 10.0 uM, Protein concentration 2.0 uM
[46] = biological target: Protein polybromo-1 (Homo sapiens) (UniProt Q86U86); conditions: Compound concentration 10.0 uM, Protein concentration 2.0 uM; remark: listed apart in the source
[47] = biological target: Transcription initiation factor TFIID subunit 1 (Homo sapiens) (UniProt P21675); conditions: Compound concentration 10.0 uM, Protein concentration 2.0 uM; remark: listed apart in the source
[48] = biological target: Protein polybromo-1 (Homo sapiens) (UniProt Q86U86); assay: Thermal Shift Assay. Domain start/stop: H23-D159; conditions: Compound concentration 10.0 uM, Protein concentration 2.0 uM
[49] = biological target: Bromodomain-containing protein 3 (Homo sapiens) (UniProt Q15059); conditions: Compound concentration 10.0 uM, Protein concentration 2.0 uM
[50] = biological target: SWI/SNF-related matrix-associated actin-dependent regulator of chromatin subfamily A member 4 (Homo sapiens) (UniProt P51532); conditions: Compound concentration 10.0 uM, Protein concentration 2.0 uM
Sequence of SWI/SNF-related matrix-associated actin-dependent regulator of chromatin subfamily A member 4 (Homo sapiens) (P51532 whole entry): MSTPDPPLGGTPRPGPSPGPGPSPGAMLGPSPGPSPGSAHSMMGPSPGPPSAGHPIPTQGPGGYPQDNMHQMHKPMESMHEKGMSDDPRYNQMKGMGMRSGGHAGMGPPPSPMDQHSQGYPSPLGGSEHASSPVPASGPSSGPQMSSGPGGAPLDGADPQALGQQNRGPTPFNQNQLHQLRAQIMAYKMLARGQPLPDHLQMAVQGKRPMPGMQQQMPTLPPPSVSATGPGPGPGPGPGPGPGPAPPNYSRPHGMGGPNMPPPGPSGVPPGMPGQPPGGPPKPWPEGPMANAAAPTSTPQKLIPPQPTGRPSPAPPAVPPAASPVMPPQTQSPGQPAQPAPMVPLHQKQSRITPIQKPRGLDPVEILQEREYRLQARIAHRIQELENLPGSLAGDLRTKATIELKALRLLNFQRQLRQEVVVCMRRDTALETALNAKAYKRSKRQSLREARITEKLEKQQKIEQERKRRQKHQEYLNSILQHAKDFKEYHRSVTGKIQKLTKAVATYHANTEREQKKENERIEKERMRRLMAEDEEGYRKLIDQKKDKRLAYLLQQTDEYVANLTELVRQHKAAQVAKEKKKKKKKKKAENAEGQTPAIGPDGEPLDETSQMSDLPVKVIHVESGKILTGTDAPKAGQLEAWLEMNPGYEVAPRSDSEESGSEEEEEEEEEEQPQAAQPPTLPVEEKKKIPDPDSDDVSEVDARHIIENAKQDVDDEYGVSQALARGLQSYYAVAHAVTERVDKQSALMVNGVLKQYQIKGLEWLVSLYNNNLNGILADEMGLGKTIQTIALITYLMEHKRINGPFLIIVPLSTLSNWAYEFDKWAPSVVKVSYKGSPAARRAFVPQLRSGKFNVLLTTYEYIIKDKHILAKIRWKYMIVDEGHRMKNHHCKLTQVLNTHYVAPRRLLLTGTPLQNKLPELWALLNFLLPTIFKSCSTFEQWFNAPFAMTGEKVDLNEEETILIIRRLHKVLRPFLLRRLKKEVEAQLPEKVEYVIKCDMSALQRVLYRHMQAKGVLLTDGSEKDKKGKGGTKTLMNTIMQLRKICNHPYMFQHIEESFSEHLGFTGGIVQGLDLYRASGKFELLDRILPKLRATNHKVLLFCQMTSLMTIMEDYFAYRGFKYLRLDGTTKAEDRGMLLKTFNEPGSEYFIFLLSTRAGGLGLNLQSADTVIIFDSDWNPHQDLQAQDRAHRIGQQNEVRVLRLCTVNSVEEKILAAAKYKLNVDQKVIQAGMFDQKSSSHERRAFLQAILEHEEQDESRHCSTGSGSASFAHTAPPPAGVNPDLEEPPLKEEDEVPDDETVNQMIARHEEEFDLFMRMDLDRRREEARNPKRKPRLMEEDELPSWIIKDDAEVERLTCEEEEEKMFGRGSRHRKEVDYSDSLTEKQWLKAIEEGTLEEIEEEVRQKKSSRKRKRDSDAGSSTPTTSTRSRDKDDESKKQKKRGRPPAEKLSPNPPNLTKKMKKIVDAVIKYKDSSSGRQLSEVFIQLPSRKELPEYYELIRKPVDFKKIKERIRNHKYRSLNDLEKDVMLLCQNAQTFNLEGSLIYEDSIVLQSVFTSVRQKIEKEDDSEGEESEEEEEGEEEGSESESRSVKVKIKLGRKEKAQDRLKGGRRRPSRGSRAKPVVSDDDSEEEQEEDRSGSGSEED

[51] = Compound concentration 100.0 uM

Sequence of Protein polybromo-1 (Homo sapiens) (Q86U86 whole entry): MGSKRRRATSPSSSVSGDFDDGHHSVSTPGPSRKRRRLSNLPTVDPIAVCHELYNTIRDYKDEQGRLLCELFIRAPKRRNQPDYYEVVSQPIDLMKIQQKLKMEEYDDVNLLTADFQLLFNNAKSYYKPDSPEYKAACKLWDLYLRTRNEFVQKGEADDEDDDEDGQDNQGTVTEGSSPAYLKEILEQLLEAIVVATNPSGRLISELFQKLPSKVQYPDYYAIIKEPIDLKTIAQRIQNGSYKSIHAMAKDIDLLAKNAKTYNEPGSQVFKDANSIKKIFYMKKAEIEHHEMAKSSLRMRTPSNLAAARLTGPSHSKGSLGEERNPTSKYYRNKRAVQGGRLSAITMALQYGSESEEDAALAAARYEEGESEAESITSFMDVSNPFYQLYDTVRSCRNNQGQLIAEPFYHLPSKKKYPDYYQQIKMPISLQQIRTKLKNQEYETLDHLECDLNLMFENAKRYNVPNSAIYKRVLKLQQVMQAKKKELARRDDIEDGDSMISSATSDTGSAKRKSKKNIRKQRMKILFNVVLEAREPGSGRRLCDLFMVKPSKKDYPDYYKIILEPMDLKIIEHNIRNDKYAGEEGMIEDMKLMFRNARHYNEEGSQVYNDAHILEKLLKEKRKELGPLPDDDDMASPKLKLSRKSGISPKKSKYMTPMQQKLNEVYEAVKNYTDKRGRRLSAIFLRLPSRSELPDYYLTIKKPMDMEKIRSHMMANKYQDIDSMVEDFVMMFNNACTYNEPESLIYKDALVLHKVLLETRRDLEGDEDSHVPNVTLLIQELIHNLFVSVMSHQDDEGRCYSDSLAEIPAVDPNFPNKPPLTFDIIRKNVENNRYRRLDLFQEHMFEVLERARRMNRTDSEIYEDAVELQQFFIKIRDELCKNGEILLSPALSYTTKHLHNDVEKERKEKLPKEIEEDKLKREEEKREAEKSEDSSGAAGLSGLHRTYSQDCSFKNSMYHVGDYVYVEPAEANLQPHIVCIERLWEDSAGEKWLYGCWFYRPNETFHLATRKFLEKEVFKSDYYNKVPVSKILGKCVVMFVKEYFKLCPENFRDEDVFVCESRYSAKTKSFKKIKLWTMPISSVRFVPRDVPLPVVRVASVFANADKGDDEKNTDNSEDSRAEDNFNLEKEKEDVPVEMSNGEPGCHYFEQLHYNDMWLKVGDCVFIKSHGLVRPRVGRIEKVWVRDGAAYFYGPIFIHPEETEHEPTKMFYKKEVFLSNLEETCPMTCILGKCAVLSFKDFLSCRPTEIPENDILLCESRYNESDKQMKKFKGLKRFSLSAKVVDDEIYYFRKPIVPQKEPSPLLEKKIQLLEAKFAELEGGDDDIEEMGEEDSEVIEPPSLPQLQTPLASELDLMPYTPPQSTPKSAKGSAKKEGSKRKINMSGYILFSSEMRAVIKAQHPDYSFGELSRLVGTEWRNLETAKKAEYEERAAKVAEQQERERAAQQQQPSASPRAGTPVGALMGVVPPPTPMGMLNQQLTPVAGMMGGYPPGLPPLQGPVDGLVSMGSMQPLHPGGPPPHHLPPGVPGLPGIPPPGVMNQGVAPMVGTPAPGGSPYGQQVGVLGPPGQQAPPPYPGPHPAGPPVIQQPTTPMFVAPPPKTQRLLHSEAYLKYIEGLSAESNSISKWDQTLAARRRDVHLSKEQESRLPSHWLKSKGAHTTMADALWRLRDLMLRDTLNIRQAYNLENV

O=C(/C=C/N1C[C@H]2C[C@@H]1CN2c1ccccn1)c1ccccc1O
ΔTm ([1]; Compound concentration 10.0 uM): 0.98 °C
ΔTm [1, 51]: 2.54 °C
ΔTm [2]: 0.65 °C
ΔTm [3]: 0.59 °C and -0.66 °C
ΔTm [4]: 0.77 °C
ΔTm ([5]; Compound concentration 10.0 uM): 1.13 °C
ΔTm [5, 51]: 4.63 °C
ΔTm [6]: 0.36 °C and -0.62 °C
ΔTm [7]: 0.54 °C
ΔTm [8]: 6.62 °C and 8.52 °C
ΔTm [9]: 0.83 °C
ΔTm [10]: 5.23 °C
ΔTm [11]: 1.62 °C
ΔTm [12]: 1.15 °C
ΔTm [13]: -0.01 °C
ΔTm [14]: 0.96 °C
ΔTm [15]: 0.2 °C and 0.15 °C
ΔTm [16]: 0.5 °C
ΔTm [17]: -0.08 °C
ΔTm [18]: 1.04 °C
ΔTm [19]: 1.02 °C
ΔTm [20]: 0.24 °C
ΔTm (Peregrin (Homo sapiens) [21]): 1.12 °C
ΔTm [22]: 0.39 °C
ΔTm [23]: 1.22 °C and 0.26 °C
ΔTm [24]: 1.1 °C
ΔTm [25]: -0.23 °C and 0.38 °C
ΔTm [26]: 1.62 °C
ΔTm [27]: 0.24 °C
ΔTm [28]: 1.25 °C
ΔTm [29]: 0.61 °C
ΔTm [30]: 0.56 °C
ΔTm [31]: 0.4 °C
ΔTm [32]: 0.77 °C
ΔTm [33]: 0 °C
ΔTm [34]: 0.79 °C
ΔTm [35]: 0.34 °C
ΔTm [36]: 0.52 °C
ΔTm [37]: 0.71 °C and -0.1 °C
ΔTm [38]: 10 °C
ΔTm [39]: 0.14 °C
ΔTm [40]: 0.19 °C
ΔTm (Peregrin (Homo sapiens) [41]): -0.08 °C
ΔTm [42]: 0.02 °C
ΔTm [43]: 0.92 °C
ΔTm [44]: -0.35 °C
ΔTm [45]: 0.43 °C
ΔTm [46]: 0.85 °C
ΔTm [47]: 0.75 °C
ΔTm [48]: 0.05 °C
ΔTm [49]: 0.84 °C
ΔTm [50]: 5.19 °C and 7.18 °C (2×)
